ChEMBL document CHEMBL1806380, “Rigidized 1-aryl sulfonyl tryptamines: synthesis and pharmacological evaluation as 5-HT6 receptor ligands” (Bioorg Med Chem Lett, 2011)
One block for each compound: values may come before it.

What was measured:
[1] = biological target: 5-hydroxytryptamine receptor 6 (Homo sapiens) (UniProt P50406); experiment: Binding affinity to human recombinant 5HT6 receptor expressed in CHO cells co-expressing pCRE-Luc gene assessed as modulation of serotonin-induced intracellular cAMP level after 4 hrs by luciferase based luminescence assay; type: cell-based
5-hydroxytryptamine receptor 6 (Homo sapiens), sequence (P50406 whole entry): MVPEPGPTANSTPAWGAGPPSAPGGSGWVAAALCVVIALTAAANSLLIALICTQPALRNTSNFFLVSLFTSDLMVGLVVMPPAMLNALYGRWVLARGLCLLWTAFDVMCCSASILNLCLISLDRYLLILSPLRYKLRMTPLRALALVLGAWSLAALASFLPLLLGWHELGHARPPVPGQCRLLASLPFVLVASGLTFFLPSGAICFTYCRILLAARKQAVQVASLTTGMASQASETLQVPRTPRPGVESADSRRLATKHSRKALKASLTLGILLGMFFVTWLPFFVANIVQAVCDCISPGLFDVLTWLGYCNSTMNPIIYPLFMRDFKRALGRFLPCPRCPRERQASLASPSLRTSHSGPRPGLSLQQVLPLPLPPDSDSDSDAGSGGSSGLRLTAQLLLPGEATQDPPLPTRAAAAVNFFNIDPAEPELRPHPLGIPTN

[2] = biological target: Sodium-dependent serotonin transporter (Homo sapiens) (UniProt P31645); experiment: Inhibition of SERT at 0.5 uM
Sodium-dependent serotonin transporter (Homo sapiens), sequence (P31645 whole entry, looked up): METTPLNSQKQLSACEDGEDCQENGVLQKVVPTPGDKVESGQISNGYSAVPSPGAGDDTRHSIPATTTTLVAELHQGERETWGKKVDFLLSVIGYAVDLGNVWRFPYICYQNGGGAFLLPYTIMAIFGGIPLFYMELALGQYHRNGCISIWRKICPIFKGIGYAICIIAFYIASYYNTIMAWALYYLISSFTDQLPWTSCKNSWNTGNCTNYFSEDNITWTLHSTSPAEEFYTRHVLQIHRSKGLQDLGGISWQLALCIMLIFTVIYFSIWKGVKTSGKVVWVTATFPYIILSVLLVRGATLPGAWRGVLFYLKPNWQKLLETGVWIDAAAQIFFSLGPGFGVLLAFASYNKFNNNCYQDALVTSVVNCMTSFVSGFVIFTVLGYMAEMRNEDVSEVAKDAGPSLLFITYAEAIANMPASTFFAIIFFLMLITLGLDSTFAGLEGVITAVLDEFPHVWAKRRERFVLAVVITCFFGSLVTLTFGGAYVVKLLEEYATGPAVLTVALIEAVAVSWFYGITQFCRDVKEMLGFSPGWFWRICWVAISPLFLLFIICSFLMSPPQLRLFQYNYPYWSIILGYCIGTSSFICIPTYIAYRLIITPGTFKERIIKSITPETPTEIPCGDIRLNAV

[3] = biological target: Sodium-dependent noradrenaline transporter (Homo sapiens) (UniProt P23975); experiment: Inhibition of NET at 0.5 uM
Sodium-dependent noradrenaline transporter (Homo sapiens), sequence (P23975 whole entry): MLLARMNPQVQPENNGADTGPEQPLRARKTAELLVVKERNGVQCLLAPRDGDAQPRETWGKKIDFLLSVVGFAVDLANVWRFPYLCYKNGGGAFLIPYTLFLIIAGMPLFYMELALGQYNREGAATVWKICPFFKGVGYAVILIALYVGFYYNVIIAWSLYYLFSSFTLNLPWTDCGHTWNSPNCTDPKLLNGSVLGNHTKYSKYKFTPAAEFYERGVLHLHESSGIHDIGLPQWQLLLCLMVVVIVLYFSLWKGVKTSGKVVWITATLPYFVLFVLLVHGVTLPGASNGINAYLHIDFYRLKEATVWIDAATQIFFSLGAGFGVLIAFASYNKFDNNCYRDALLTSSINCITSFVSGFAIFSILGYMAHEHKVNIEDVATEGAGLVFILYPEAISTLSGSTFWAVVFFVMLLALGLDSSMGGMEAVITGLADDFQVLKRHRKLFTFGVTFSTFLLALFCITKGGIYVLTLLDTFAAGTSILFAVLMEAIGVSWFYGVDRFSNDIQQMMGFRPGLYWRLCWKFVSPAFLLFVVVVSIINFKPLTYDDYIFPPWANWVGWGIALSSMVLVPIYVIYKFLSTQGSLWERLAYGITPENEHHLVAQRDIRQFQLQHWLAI

[4] = biological target: T1, 5-hydroxytryptamine receptor 2C (Homo sapiens) (UniProt P28335); experiment: Inhibition of 5HT2C receptor at 0.5 uM
T1 sequence (whole entry): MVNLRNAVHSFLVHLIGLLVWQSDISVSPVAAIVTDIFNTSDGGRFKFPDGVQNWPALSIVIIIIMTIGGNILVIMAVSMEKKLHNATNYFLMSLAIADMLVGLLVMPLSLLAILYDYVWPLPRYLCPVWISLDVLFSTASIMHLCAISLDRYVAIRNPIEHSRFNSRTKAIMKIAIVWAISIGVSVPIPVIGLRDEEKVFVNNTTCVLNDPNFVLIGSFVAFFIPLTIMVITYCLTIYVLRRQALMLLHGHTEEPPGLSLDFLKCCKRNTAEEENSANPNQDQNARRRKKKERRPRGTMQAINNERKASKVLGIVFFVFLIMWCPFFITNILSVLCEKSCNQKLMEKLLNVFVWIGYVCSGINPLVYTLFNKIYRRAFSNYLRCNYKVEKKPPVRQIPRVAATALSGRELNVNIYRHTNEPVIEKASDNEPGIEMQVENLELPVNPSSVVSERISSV

[5] = biological target: 5-hydroxytryptamine receptor 7 (Rattus norvegicus) (UniProt P32305); experiment: Binding affinity to rat 5HT7 receptor expressed in CHO cells co-expressing pCRE-Luc gene assessed as modulation of serotonin-induced intracellular cAMP level at 0.5 uM after 5 hrs by luciferase based luminescence assay; type: cell-based
5-hydroxytryptamine receptor 7 (Rattus norvegicus), sequence (P32305 whole entry): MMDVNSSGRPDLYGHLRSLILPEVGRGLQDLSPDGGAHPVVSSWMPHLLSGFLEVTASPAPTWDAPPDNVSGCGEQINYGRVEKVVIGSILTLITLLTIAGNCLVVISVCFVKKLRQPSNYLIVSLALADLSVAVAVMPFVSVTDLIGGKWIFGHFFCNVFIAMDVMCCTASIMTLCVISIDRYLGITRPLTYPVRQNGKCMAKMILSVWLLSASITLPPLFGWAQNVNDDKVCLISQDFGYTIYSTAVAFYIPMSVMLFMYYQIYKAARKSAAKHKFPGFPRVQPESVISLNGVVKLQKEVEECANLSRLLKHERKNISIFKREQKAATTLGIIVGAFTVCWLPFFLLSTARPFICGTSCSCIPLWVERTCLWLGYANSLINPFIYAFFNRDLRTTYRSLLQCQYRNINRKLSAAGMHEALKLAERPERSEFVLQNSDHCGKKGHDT

[6] = biological target: T2, Muscarinic acetylcholine receptor M1 (Homo sapiens) (UniProt P11229); experiment: Binding affinity to human muscarinic M1 receptor expressed in CHO cells co-expressing pCRE-Luc gene assessed as modulation of acetylcholine-induced intracellular cAMP level at 0.5 uM after 5 hrs by luciferase based luminescence assay; type: cell-based
T2 sequence (whole entry): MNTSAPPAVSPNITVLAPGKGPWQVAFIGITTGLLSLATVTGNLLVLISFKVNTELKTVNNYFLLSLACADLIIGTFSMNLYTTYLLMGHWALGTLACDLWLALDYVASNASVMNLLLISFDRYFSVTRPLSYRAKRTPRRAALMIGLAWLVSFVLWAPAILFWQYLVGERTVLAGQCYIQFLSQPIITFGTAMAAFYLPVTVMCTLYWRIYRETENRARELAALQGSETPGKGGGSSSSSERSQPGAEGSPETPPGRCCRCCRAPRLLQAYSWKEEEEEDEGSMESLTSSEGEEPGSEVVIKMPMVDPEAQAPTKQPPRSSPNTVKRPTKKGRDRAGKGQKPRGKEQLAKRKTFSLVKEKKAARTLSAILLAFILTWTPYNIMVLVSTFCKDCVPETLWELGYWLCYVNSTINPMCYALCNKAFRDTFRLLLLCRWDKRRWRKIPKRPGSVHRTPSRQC

[7] = biological target: 5-hydroxytryptamine receptor 4 (Homo sapiens) (UniProt Q13639); experiment: Binding affinity to human recombinant 5HT4 receptor expressed in CHO cells co-expressing pCRE-Luc gene assessed as modulation of serotonin-induced intracellular cAMP level at 0.5 uM after 5 hrs by luciferase based luminescence assay; type: cell-based
5-hydroxytryptamine receptor 4 (Homo sapiens), sequence (Q13639 whole entry): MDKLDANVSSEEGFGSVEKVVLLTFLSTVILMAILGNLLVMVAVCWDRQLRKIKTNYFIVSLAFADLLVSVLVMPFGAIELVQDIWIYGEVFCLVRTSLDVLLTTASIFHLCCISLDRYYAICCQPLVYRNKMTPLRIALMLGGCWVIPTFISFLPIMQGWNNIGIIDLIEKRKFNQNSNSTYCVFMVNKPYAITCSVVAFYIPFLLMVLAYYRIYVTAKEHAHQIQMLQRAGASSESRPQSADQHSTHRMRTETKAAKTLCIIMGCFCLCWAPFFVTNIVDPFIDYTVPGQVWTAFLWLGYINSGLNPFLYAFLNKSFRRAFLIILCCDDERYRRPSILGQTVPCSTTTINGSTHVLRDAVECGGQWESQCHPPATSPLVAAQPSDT

[8] = biological target: Histamine H1 receptor (Homo sapiens) (UniProt P35367); experiment: Inhibition of histamine H1 receptor at 0.5 uM
Histamine H1 receptor (Homo sapiens), sequence (P35367 whole entry): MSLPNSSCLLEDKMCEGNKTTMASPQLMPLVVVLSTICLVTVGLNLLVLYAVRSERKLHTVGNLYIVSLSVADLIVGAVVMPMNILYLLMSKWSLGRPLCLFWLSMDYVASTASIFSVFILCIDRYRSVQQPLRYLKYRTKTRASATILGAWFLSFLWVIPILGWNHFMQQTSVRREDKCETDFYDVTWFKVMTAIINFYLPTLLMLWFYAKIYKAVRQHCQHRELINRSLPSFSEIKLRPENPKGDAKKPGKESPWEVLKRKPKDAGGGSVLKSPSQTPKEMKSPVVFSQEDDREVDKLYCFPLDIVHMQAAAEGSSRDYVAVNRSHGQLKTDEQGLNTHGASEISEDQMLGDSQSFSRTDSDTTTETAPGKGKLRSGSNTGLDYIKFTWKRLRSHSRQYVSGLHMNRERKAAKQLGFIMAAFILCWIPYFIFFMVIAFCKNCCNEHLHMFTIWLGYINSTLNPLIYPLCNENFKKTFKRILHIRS

[9] = Metabolic stability in human liver microsomes assessed as drug metabolized level after 30 mins; type: ADME, Microsome; settings: read-out: Activity
[10] = biological target: Sodium-dependent dopamine transporter (Homo sapiens) (UniProt Q01959); experiment: Inhibition of DAT at 0.5 uM
Sodium-dependent dopamine transporter (Homo sapiens), sequence (Q01959 whole entry): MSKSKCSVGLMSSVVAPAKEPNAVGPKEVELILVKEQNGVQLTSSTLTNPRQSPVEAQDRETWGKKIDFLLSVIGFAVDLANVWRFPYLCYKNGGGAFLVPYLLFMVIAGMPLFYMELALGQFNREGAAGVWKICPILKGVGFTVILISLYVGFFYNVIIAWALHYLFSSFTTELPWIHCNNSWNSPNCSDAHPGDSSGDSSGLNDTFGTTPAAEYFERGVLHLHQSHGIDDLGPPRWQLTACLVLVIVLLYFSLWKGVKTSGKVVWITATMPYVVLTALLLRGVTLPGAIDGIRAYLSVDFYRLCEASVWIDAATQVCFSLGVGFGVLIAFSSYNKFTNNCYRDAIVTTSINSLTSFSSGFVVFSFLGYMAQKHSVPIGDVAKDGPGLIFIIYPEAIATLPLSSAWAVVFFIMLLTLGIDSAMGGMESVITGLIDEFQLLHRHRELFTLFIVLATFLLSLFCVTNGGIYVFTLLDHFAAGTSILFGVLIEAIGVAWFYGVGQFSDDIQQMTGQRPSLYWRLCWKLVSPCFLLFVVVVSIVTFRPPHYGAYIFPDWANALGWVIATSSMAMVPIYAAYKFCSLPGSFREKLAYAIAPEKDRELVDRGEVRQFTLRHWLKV

[11] = biological target: T3, Alpha-1B adrenergic receptor (Homo sapiens) (UniProt P35368); experiment: Inhibition of adrenergic alpha1b receptor at 0.5 uM
T3 sequence (whole entry): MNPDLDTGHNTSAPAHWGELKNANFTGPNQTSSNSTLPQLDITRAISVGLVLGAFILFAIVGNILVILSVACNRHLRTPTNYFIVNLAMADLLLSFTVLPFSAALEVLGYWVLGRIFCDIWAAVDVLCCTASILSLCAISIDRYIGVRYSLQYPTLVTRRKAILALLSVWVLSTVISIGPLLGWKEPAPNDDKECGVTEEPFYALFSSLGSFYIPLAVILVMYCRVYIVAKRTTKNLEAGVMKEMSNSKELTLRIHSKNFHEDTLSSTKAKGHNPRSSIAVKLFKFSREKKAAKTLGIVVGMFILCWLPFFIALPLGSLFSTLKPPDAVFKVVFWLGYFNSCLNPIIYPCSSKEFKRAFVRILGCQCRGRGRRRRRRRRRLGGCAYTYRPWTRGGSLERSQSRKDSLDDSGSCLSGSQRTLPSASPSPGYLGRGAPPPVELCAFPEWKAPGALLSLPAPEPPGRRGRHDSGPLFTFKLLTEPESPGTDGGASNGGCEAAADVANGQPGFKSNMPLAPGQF

[12] = biological target: 5-hydroxytryptamine receptor 2A (Homo sapiens) (UniProt P28223); experiment: Inhibition of 5HT2A receptor at 0.5 uM
5-hydroxytryptamine receptor 2A (Homo sapiens), sequence (P28223 whole entry): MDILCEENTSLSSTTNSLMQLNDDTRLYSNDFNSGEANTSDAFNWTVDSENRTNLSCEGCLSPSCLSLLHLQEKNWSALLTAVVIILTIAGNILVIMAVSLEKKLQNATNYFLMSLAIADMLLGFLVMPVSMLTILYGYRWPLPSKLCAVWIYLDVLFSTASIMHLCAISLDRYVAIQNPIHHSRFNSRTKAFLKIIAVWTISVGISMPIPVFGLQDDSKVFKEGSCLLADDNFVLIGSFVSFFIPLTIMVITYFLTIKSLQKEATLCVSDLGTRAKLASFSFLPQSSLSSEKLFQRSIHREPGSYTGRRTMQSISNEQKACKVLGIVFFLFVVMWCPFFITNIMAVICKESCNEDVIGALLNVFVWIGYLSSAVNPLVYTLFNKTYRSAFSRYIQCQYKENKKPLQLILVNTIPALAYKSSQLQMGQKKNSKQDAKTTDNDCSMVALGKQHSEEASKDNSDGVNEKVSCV

[13] = biological target: D(2) dopamine receptor (Homo sapiens) (UniProt P14416); experiment: Inhibition of dopamine D2 receptor at 0.5 uM
D(2) dopamine receptor (Homo sapiens), sequence (P14416 whole entry): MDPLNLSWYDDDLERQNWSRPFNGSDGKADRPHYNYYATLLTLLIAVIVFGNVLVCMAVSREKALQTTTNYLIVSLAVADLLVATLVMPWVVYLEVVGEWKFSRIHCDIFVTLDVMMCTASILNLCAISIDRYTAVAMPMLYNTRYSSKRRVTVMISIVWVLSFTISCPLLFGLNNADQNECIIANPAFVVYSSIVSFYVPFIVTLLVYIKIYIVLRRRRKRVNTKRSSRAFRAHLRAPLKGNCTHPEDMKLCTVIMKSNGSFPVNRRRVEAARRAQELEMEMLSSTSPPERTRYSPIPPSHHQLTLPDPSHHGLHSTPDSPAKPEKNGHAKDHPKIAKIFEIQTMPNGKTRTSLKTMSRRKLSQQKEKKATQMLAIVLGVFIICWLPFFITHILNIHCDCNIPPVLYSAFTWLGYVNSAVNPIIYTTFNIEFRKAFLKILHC

[14] = Metabolic stability in rat liver microsomes assessed as drug metabolized level after 30 mins; type: ADME, Microsome; settings: read-out: Activity

SMILES: COc1ccc2c(c1)c(C1=C(Cl)CN(C)C1)cn2S(=O)(=O)c1ccc(C(C)C)cc1
- Kb [1]: 0.25 nM

SMILES: CN1CCC(c2cn(S(=O)(=O)c3ccccc3Br)c3ccccc23)C1 (racemic)
- Kb [1]: 0.13 nM

SMILES: COc1ccc(S(=O)(=O)n2cc(C3=C(Cl)CN(C)C3)c3ccccc32)cc1
- Kb [1]: 10 nM

SMILES: CCN1CC(Cl)=C(c2cn(S(=O)(=O)c3ccc(Br)cc3)c3ccccc23)C1
- Kb [1]: 3.9 nM

SMILES: CN1CCC(c2cn(S(=O)(=O)c3ccc(F)cc3)c3ccccc23)C1 (racemic)
- Kb [1]: 1 nM

SMILES: CCN1CCC(c2cn(S(=O)(=O)c3ccccc3Br)c3ccc(OC)cc23)C1 (racemic)
- Kb [1]: 1.3 nM

SMILES: CCN1CC(Cl)=C(c2cn(S(=O)(=O)c3ccccc3)c3ccc(OC)cc23)C1
- Kb [1]: 0.7 nM

SMILES: CCN1CC(Cl)=C(c2cn(S(=O)(=O)c3cccc(Cl)c3)c3ccccc23)C1
- Kb [1]: 12.5 nM

SMILES: COc1ccc2c(c1)c(CCN(C)C)cn2S(=O)(=O)c1ccccc1
- Kb [1]: 5.8 nM

SMILES: CN1CCC(c2cn(S(=O)(=O)c3ccccc3)c3ccccc23)C1 (racemic)
- Kb [1]: 1.52 nM

SMILES: CCN1CC(Cl)=C(c2cn(S(=O)(=O)c3cccc(Cl)c3)c3ccc(OC)cc23)C1
- Kb [1]: 2.4 nM

SMILES: CC(C)Oc1ccc2c(c1)c(C1CCN(C)C1)cn2S(=O)(=O)c1ccccc1Br (racemic)
- Kb [1]: 4.15 nM

SMILES: CCN1CC(Cl)=C(c2cn(S(=O)(=O)c3ccc(OC)cc3)c3ccc(OC)cc23)C1
- Kb [1]: 14.5 nM

SMILES: CC(C)Oc1ccc2c(c1)c(C1=C(Cl)CN(C)C1)cn2S(=O)(=O)c1ccccc1
- Kb [1]: 0.7 nM

SMILES: COc1ccc2c(c1)c(C1CCN(C)C1)cn2S(=O)(=O)c1ccccc1 (racemic)
- Kb [1]: 0.89 nM

SMILES: COc1ccc2c(c1)c(C1=C(Cl)CN(C)C1)cn2S(=O)(=O)c1cccc(Cl)c1
- Kb [1]: 0.84 nM

SMILES: COc1ccc2c(c1)c(C1=C(Cl)CN(C)C1)cn2S(=O)(=O)c1cc(Cl)c(Cl)cc1Cl
- Kb [1]: 18.4 nM

SMILES: COc1ccc2c(c1)c(C1CCN(C)C1)cn2S(=O)(=O)c1ccc(C(C)C)cc1 (racemic)
- Kb [1]: 0.1 nM

SMILES: COc1ccc2c(c1)c(C1CCN(C)C1)cn2S(=O)(=O)c1ccccc1Br (racemic)
- Kb [1]: 0.13 nM

SMILES: CCN1CCC(c2cn(S(=O)(=O)c3ccccc3Br)c3ccccc23)C1 (racemic)
- Kb [1]: 0.1 nM

SMILES: CCN1CC(Cl)=C(c2cn(S(=O)(=O)c3ccc(F)cc3)c3ccc(OC)cc23)C1
- Kb [1]: 8.7 nM

SMILES: CCOc1ccc2c(c1)c(C1=C(Cl)CN(C)C1)cn2S(=O)(=O)c1ccc(Br)cc1
- Kb [1]: 4.45 nM

SMILES: CCN1CC(Cl)=C(c2cn(S(=O)(=O)c3ccc(Br)cc3)c3ccc(OC)cc23)C1
- Kb [1]: 4.75 nM

SMILES: COc1ccc(S(=O)(=O)n2cc(C3=C(Cl)CN(C)C3)c3cc(OC)ccc32)cc1
- inhibition [2]: < 50%
- inhibition [3]: < 50%
- Kb [1]: 1.65 nM
- inhibition [4]: < 50%
- inhibition [5]: < 50%
- inhibition [6]: < 50%
- inhibition [7]: < 50%
- inhibition [8]: < 50%
- inhibition [10]: < 50%
- inhibition [11]: < 50%
- inhibition [12]: < 50%
- inhibition [13]: < 50%

SMILES: CCN1CC(Cl)=C(c2cn(S(=O)(=O)c3ccc(F)cc3)c3ccccc23)C1
- Kb [1]: 5.8 nM

SMILES: CCOc1ccc2c(c1)c(C1CCN(C)C1)cn2S(=O)(=O)c1ccccc1Br (racemic)
- Kb [1]: 0.1 nM

Further lines, results first:

- Kb [1]: 6.16 nM
SMILES: CCOc1ccc2c(c1)c(C1=C(Cl)CN(C)C1)cn2S(=O)(=O)c1ccc(F)cc1

- inhibition [2]: < 50%
- inhibition [3]: < 50%
- Kb [1]: 0.1 nM
- inhibition [4]: < 50%
- inhibition [5]: < 50%
- inhibition [6]: < 50%
- inhibition [7]: < 50%
- inhibition [8]: < 50%
- metabolised at 0.5 h [9]: 97%
- inhibition [10]: < 50%
- inhibition [11]: < 50%
- inhibition [12]: < 50%
- inhibition [13]: < 50%
- metabolised at 0.5 h [14]: 96%
SMILES: COc1ccc2c(c1)c(C1=C(Cl)CN(C)C1)cn2S(=O)(=O)c1ccccc1

- Kb [1]: 0.45 nM
SMILES: CCOc1ccc2c(c1)c(C1=C(Cl)CN(CC)C1)cn2S(=O)(=O)c1ccccc1Br

- Kb [1]: 0.25 nM
SMILES: CN1CC(Cl)=C(c2cn(S(=O)(=O)c3ccccc3Br)c3ccc(F)cc23)C1

- Kb [1]: 1 nM
SMILES: CCOc1ccc2c(c1)c(C1=C(Cl)CN(C)C1)cn2S(=O)(=O)c1ccccc1

- inhibition [2]: < 50%
- inhibition [3]: < 50%
- Kb [1]: 0.6 nM
- inhibition [4]: < 50%
- inhibition [5]: < 50%
- inhibition [6]: < 50%
- inhibition [7]: < 50%
- inhibition [8]: < 50%
- inhibition [10]: < 50%
- inhibition [11]: < 50%
- inhibition [12]: < 50%
- inhibition [13]: < 50%
SMILES: CN1CC(Cl)=C(c2cn(S(=O)(=O)c3ccc(F)cc3)c3ccccc23)C1

- inhibition [2]: < 50%
- inhibition [3]: < 50%
- Kb [1]: 0.3 nM
- inhibition [4]: < 50%
- inhibition [5]: < 50%
- inhibition [6]: < 50%
- inhibition [7]: < 50%
- inhibition [8]: < 50%
- inhibition [10]: < 50%
- inhibition [11]: < 50%
- inhibition [12]: < 50%
- inhibition [13]: < 50%
SMILES: COc1ccc2c(c1)c(C1=C(Cl)CN(C)C1)cn2S(=O)(=O)c1ccccc1Br

- Kb [1]: 7.27 nM
SMILES: CC(C)Oc1ccc2c(c1)c(C1=C(Cl)CN(C)C1)cn2S(=O)(=O)c1ccc(F)cc1

- inhibition [2]: < 50%
- inhibition [3]: < 50%
- Kb [1]: 0.35 nM
- inhibition [4]: < 50%
- inhibition [5]: < 50%
- inhibition [6]: < 50%
- inhibition [7]: < 50%
- inhibition [8]: < 50%
- inhibition [10]: < 50%
- inhibition [11]: < 50%
- inhibition [12]: < 50%
- inhibition [13]: < 50%
SMILES: CN1CC(Cl)=C(c2cn(S(=O)(=O)c3ccc(Br)cc3)c3ccccc23)C1

- Kb [1]: 6.15 nM
SMILES: CCN1CC(Cl)=C(c2cn(S(=O)(=O)c3cccc(Cl)c3)c3ccc(F)cc23)C1

- Kb [1]: 1.1 nM
SMILES: CCN1CC(Cl)=C(c2cn(S(=O)(=O)c3ccccc3Br)c3ccccc23)C1

- Kb [1]: 0.4 nM
SMILES: CCOc1ccc2c(c1)c(C1=C(Cl)CN(C)C1)cn2S(=O)(=O)c1ccccc1Br

- Kb [1]: 0.63 nM
SMILES: COc1ccc2c(c1)c(C1=C(Cl)CN(C)C1)cn2S(=O)(=O)c1ccc(F)cc1

- Kb [1]: 1.78 nM
SMILES: COc1ccc2c(c1)c(C1=C(Cl)CN(C)C1)cn2S(=O)(=O)c1ccc(Br)cc1

- Kb [1]: 6.15 nM
SMILES: CCN1CC(Cl)=C(c2cn(S(=O)(=O)c3ccccc3Br)c3ccc(OC)cc23)C1

- Kb [1]: 0.1 nM
SMILES: CN1CC(Cl)=C(c2cn(S(=O)(=O)c3ccccc3)c3ccc(F)cc23)C1
